Laboratory results: publication PMC7764665, “Food (Matrix) Effects on Bioaccessibility and Intestinal Permeability of Major Olive Antioxidants” (Foods, 2020)
In brackets after ≈: the same amount, converted by molar mass. Several values for one entry are separate records, joined by “and”; a condition that tells them apart may be missing. Identical values can stand only once.

Experiments:
[1] = design: method as in PMID 29663812; settings: co-digestion with the test meal; cited from earlier work
[2] = design: method as in PMID 11435519; settings: rat model, lipid-rich matrix (olive oil); cited from earlier work
[3] = design: method as in PMID 18209271; settings: after virgin olive oil ingestion; cited from earlier work
[4] = Standardized static in vitro simulation of gastrointestinal digestion of OPE (bioaccessibility), alone or co-digested with food; assay type: in vitro ADME; settings: fed vs fasted state biorelevant media (FeSSGF/FeSSIF vs FaSSGF/FaSSIF)
[5] = source not given; cited from earlier work
[6] = tested on: Caco-2 cell monolayer; experiment: Transepithelial transport of HTS and TS in Caco-2 monolayers; settings: 2 h, compared to MIX; for transepithelial permeability in presence of glucose: 40 µg/mL HTS and TS with 10 mM glucose; for transepithelial permeability in presence of cellulose: 40 µg/mL HTS and TS with 1% cellulose
[7] = Standardized static in vitro simulation of gastrointestinal digestion of OPE (bioaccessibility), alone or co-digested with food; assay type: in vitro ADME; settings: for bioaccessible amount after gastrointestinal digestion / amount in OPE before gastrointestinal digestion: OPE; for bioaccessible amount after gastrointestinal digestion: after simulated gastrointestinal digestion; for amount in OPE before gastrointestinal digestion: before digestion (start of the printed increase); for effect of standardized food model (SFM) on bioaccessibility: digestion with SFM compared to other applied methods
Description: Total polyphenols (total reductive capacity) of analyzed samples was assessed by Folin–Ciocalteu method that relies on the transfer of electrons in alkaline medium from phenolic (or other reductive) compounds to phosphomolybdic/phosphotungstic acid complexes, which are determined spectroscopically at 765 nm. Experiments were conducted according to the protocol described by Ainsworth and co-workers. Moreover, 20 µL of adequately diluted sample/standard/solvent (blank) were added in triplicate to 96-well plate (Thermo Fisher Scientific 130188, Rochester, NY, USA) and incubated at 37 °C with 50 µL of Folin Ciocalteu reagent (10% (v/v)) for 5 min. The 160 µL of Na2CO3 (700 mM) was added into each well, shaken, and incubated at 37 °C for 30 min. Absorbance was read at 765 nm and results were expressed as gallic acid equivalents (GAE). HTS and TS were identified and quantified by HPLC system (Waters Alliance 2695, Milford, MA, USA) coupled with a 2475 Multi λ detector (FLD) with Xenon lamp, according to slightly modified method of Tsarbopoulos and co-workers. Samples were prepared by filtration through 0.45 μm polyethersulfone (PES) syringe filters (Macherey–Nagel, Düren, Germany). Chromatographic separation was conducted by injecting 20 μL of sample on a reversed phase column (250 × 4.6 mm, 5 μm) (Agilent Zorbax Eclipse Plus C18, Santa Clara, CA, USA). Mobile phases were 0.05 M sodium acetate buffer pH 5 and acetonitrile with the flow rate of 1 mL/min. Elution was conducted over 25 min at 25 °C. Identification was performed with FLD set at the excitation wavelength of 280 nm, and emission wavelength of 316 nm. Polyphenols were identified by comparing the retention times of the eluting peaks with those of the standards. Peaks were quantified by using the Empower2 software (Waters, Milford, MA, USA) and compared to external standard calibration. Standard stock solutions were prepared by dissolving reference compounds in DMSO. In vitro simulation of gastrointestinal digestion and the assessment of bioaccessibility of hydroxytyrosol and tyrosol from OPE was conducted by standardized static in vitro digestion method suitable for food. Three-phase digestion process was applied consisting of short salivary phase, simulation of gastric digestion and simulation of duodenal digestion. Briefly, 200 mg of OPE was used alone or mixed with 600 mg of food matrix (Table S4) in 50 mL Falcon tube. The 875 µL of SSF, 125 µL of salivary α amylase solution, 6.25 µL of CaCl2 (0.3 mol/L), and 243.8 µL of water was added, and the mixture incubated at 37 °C for 2 min with constant shaking. The 2.5 mL of reaction mixture were transferred to another Falcon tube and mixed with 1.875 mL of SGF, 1.25 µL of CaCl2 (0.3 mol/L), and 50 µL of HCl (1 mol/L). The pH of the mixture was adjusted to 3, and total volume was adjusted to 5 mL with water. The content of the Falcon tube was vortexed and incubated for 2 h at 37 °C with constant shaking. Every 15 min pH of the mixture was checked and adjusted to 3 if necessary. At the end of simulation of the gastric digestion step, 5 mL of aliquot were transferred to another 50 mL Falcon tube for the simulation of intestinal digestion. The 2.75 mL of SIF, 1.25 mL of pancreatin solution, 0.625 mL of bile salt (160 mmol/L), 10 µL of CaCl2 (0.3 mol/L), and 37.5 µL of NaOH (1 mol/L) were added. The pH was checked and adjusted to 7. Total volume of reaction mixture was adjusted to […], mixtures were vortexed and incubated for 2 h at 37 °C with constant shaking. Every 15 min, pH of the mixture was checked and adjusted to 7 if necessary. After digestion, simulation samples were cooled at −20 °C for 10 min and centrifuged (Heraeus Biofuge Stratos, Hanau, Germany) for 20 min at 4 °C and 4100 rpm. For HPLC analysis of hydroxytyrosol and tyrosol, obtained supernatants were additionally filtered through 0.45 µm polyether sulfone (PES) syringe filters. […]

[8] = tested on: Caco-2 Cells; design: method as in PMID 29663812; settings: co-digestion with the test meal; cited from earlier work
[9] = OPE co-digested with apple (peeled, no skin), relative to OPE without food
[10] = OPE co-digested with banana, relative to OPE without food
[11] = OPE co-digested with breakfast cereals, relative to OPE without food
[12] = OPE co-digested with canned tuna, relative to OPE without food
[13] = OPE co-digested with cellulose, relative to OPE without food
[14] = OPE co-digested with corn starch, relative to OPE without food
[15] = OPE co-digested with fresh low fat cheese, relative to OPE without food
[16] = OPE co-digested with honey, relative to OPE without food
[17] = OPE co-digested with milk formula, relative to OPE without food
[18] = OPE co-digested with milk, relative to OPE without food
[19] = OPE co-digested with potato (boiled), relative to OPE without food
[20] = OPE co-digested with silverbeat (blanched), relative to OPE without food
[21] = OPE co-digested with souce bolognese, relative to OPE without food
[22] = OPE co-digested with sour cream, relative to OPE without food
[23] = OPE co-digested with soy flakes, relative to OPE without food
[24] = OPE co-digested with whole-grain bread, relative to OPE without food
[25] = OPE co-digested with yoghurt, relative to OPE without food
[26] = OPE digested without food (reference)

Compound | greater absorption from olive oil compared to aqueous solution [2] [%] | time of peak concentration in plasma [3] | time of peak in urine [3] [h] | influence of food-induced changes of pH and digestion fluid composition on bioaccessibility [4] | water solubility [5] [g/L] | transepithelial permeability in presence of glucose [6] | transepithelial permeability in presence of cellulose [6] | relative bioaccessibility [7, 9] [%] | relative bioaccessibility [7, 10] [%] | relative bioaccessibility [7, 11] [%] | relative bioaccessibility [7, 12] [%] | relative bioaccessibility [7, 13] [%] | relative bioaccessibility [7, 14] | relative bioaccessibility [7, 15] [%] | relative bioaccessibility [7, 16] | relative bioaccessibility [7, 17] [%] | relative bioaccessibility [7, 18] [%] | relative bioaccessibility [7, 19] [%] | relative bioaccessibility [7, 20] [%] | relative bioaccessibility [7, 21] [%] | further results
OCCc1ccc(O)c(O)c1 [HTS, 3-hydroxytyrosol] | 25 | around 1 h | 0 to 2 | do not influence | 17.4 (≈ 113 mM) | significantly improved | did not result in increased permeability | 54.8 ± 0.72 | 65.8 ± 5.05 | 76.0 ± 2.30 | 98.3 ± 4.92 | 108.2 ± 2.24 | 94.9% and 94.9 ± 2.19% | 95.5 ± 8.16 | 89.5% and 89.5 ± 7.26% | 95.9 ± 0.96 | 98.6 ± 3.11 | 92.8 ± 5.88 | 69.3 ± 0.79 | 84.2 ± 4.61 | change of bioaccessibility by presence of foods [1]: −20%; transepithelial permeability in presence of inulin ([6]; 40 µg/mL HTS and TS with 1% inulin): significant reduction; relative bioaccessibility ([7]; OPE co-digested with pectin, relative to OPE without food): 93.2% and 93.2 ± 3.04%; relative bioaccessibility [7, 22]: 102.3 ± 2.18%; relative bioaccessibility [7, 23]: 69.8 ± 1.06%; relative bioaccessibility [7, 24]: 57.4 ± 0.97%; relative bioaccessibility [7, 25]: 92.5 ± 0.82%; relative bioaccessibility [7, 26]: 100.0 ± 2.86%; bioaccessible amount after gastrointestinal digestion [7]: 109.3 mg/100g; amount in OPE before gastrointestinal digestion [7]: 78.4 mg/100g; effect of standardized food model (SFM) on bioaccessibility [7]: no effect; change of intestinal permeability by presence of foods [8]: −10%
OCCc1ccc(O)cc1 [TS, tyrosol] | 25 | around 1 h | 0 to 2 | do not influence | 25.3 (≈ 183 mM) | significantly improved | did not result in increased permeability | 67.2 ± 0.55 | 104.5 ± 2.15 | 79.3 ± 8.70 | 98.5 ± 1.12 | 87.4 | 88.7% and 88.1 ± 1.66% | 106.4 ± 4.35 | 97.8% and 97.8 ± 0.91% | 81.3 ± 3.95 | 94.6 ± 1.63 | 92.4 ± 1.64 | 89.9 ± 4.59 | 92.4 ± 0.46 | relative bioaccessibility [7, 22]: 97.4 ± 3.34%; relative bioaccessibility [7, 23]: 93.0 ± 1.93%; relative bioaccessibility [7, 24]: 73.0 ± 0.66%; relative bioaccessibility [7, 25]: 73.8 ± 1.42%; relative bioaccessibility [7, 26]: 99.9 ± 6.75%; bioaccessible amount after gastrointestinal digestion [7]: 27.4 mg/100g; amount in OPE before gastrointestinal digestion [7]: 20.7 mg/100g; effect of standardized food model (SFM) on bioaccessibility [7]: no effect
